Earlier results on three compounds are cited in patent publication US20050153948A1, “Methods and formulations for the treatment of medical conditions related to elevated dihydrotestosterone” (Zomanex, LLC, priority 2003, published 2005).

pKi: −log10 of the molar value.

The conditions of data set [1]: aqueous sterol/lecithin formulation, deuterated compounds, humans.
Data set [2] addresses T1, type II enzyme (5α-reductase) (Homo sapiens, UniProt P31213).
T1 sequence (P31213 1-254): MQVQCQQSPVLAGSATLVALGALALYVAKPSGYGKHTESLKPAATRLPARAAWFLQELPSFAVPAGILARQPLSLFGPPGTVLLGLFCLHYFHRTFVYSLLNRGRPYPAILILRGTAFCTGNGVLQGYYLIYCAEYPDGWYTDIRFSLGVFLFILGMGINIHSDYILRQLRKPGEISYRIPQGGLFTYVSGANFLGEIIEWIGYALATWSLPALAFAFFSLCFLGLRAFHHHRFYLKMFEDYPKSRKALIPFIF
The conditions noted are these: type II 5α-reductase; read-out: K1 for type II enzyme.

The test system of the next data set is circulating serum DHT. Conditions: two clinical trials.
Another data set relates to prostate cancer. Conditions: 5 mg per day, seven-year trial; placebo group 24.4 percent.
In the next data set the target is T2, Type I human reductase (Homo sapiens, UniProt P18405).
T2 sequence (P18405 1-259): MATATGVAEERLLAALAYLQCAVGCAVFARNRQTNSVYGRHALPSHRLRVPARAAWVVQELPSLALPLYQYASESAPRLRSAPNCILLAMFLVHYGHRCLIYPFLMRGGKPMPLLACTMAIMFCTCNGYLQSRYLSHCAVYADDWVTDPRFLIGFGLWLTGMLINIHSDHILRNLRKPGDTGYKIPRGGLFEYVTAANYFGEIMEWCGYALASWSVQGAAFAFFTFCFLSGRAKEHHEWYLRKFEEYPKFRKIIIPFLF
The conditions noted are these: Type I human 5α-reductase; read-out: K1 for Type I human reductase.

The subject of data set [3] is prostate (benign prostatic hyperplasia). The conditions noted are these: long-term use; reduced from about 10 percent.

Take `CC(C)[C@H](C)CC[C@@H](C)[C@H]1CC[C@H]2[C@@H]3CC=C4C[C@@H](O)CC[C@]4(C)[C@H]3CC[C@]12C` [campesterol]: the “absorption relative to reduced derivatives sitostanol and campestanol” value in data set [1] is given as “about ten”.
With `CC(C)(C)NC(=O)[C@H]1CC[C@H]2[C@@H]3CC[C@H]4NC(=O)C=C[C@]4(C)[C@H]3CC[C@]12C` [finasteride], the pKi was 7.92 in data set [2] and 6.49 on Type I human reductase. For the same compound, in the data set with circulating serum DHT, the “reduction in circulating serum DHT” value is given as 65%. The “cumulative incidence of cancer” value in the data set with prostate cancer is 18.4%. The “need for surgical intervention for BPH” value in data set [3] was 5%.
As for `CC[C@H](CC[C@@H](C)[C@H]1CC[C@H]2[C@@H]3CC=C4C[C@@H](O)CC[C@]4(C)[C@H]3CC[C@]12C)C(C)C` [sitosterol], the “absorption relative to reduced derivatives sitostanol and campestanol” value in data set [1] was “about ten”.
